Reference: PMC7967551 (2021)

Experiments:
[1] = tested on: Tel23 (DNA, G4) TAGGGTTAGGGTTAGGGTTAGGG; experiment: UV melting at 295 nm; conditions: K+ 100 mM (KCl), Li+, LiCac 2.5 mM, pH 7.0, 5.51 µM G4, no stabilizing effect
[2] = tested on: Tel23 (DNA, G4) TAGGGTTAGGGTTAGGGTTAGGG; experiment: absorbance titration; conditions: K+ (KCl 0.1 M stated for G4 melting), Li+; LiCac 2.5 mM, pH 7.0; no signal change; highest concentration not stated

c1cc[n+]2c(c1)-c1cccc[n+]1CC2
binding ([1]; 5.47 µM compound): no | binding [2]: no

C[n+]1ccc(-c2cc[n+](C)cc2)cc1
binding ([1]; 6.01 µM compound): no | binding [2]: no
